Laboratory results: patent US20240306640A1, “BIOCIDAL MIXTURES” (LANXESS Deutschland GmbH, priority 2021, published 2024)

Columns and labels:
Assay in all cases: MIC, suppression of radial hyphal growth on malt extract nutrient agar
Type in all cases: cell-based
Aspergillus niger = settings: Example 3 synergism test, 26° C., read-out: MIC (ppm) Aspergillus niger
Experimental: (§1) Pieces of mycelium were punched out of a colony of the appropriate mold and incubated at 26° C. on a nutrient agar containing malt extract. Here, hyphal growth with and without active ingredient was compared.
(§2) The synergism was determined according to the method described by Kull et al. (F. C. Kull, P. C. Eismann, H. D. Sylvestrowicz, R. L. Mayer, Applied Microbiology 1961, 9, 538-541). The following relationships apply:
(§3) [formula] • SI=1 means additivity • SI>1 means antagonism • SI<1 means synergism • Qa=concentration of substance A which is the MIC • Qb=concentration of substance B which is the MIC • QA=concentration of substance A in the concentration of A/B at which microbial growth is suppressed • Qb=concentration of substance B in the concentration of A/B at which microbial growth is suppressed 3.1 Combinations of AZO and IPBC Against the Molds Aspergillus niger and Aspergillus versicolor

Aspergillus versicolor = settings: Example 3 synergism test, 26° C., read-out: MIC (ppm) Aspergillus versicolor
Experimental: as §1, §2, §3

Stachybotrys chartarum = settings: Example 3 synergism test, 26° C., read-out: MIC against Stachybotrys chartarum (ppm)
Experimental: (§4) For this purpose, pieces of mycelium were punched out of a colony of the appropriate mold and incubated at 26° C. on a nutrient agar containing malt extract. Here, hyphal growth with and without active ingredient was compared.
as §1, §2, §3

Trichoderma virens = settings: Example 3 synergism test, 26° C., read-out: MIC against Trichoderma virens (ppm)
Experimental: as §4, §1, §2, §3

[1] = test system: Cladosporium cladosporioides; settings: Example 3 synergism test, 26° C., read-out: MIC against Cladosporium cladosporioides (ppm)
Experimental: as §4, §1, §2, §3

`CO/C=C(/C(=O)OC)c1ccccc1Oc1cc(Oc2ccccc2C#N)ncn1` [AZO, methyl (E)-2-{2-[6-(2-cyanophenoxy)pyrimidin-4-yloxy]phenyl}-3-methoxyacrylate] showed an MIC (Aspergillus niger) of 5000 µg/mL, an MIC (Aspergillus versicolor) of 100 µg/mL and an MIC (Stachybotrys chartarum) of 100 µg/mL. It also gave an MIC (Trichoderma virens) of 1000 µg/mL and an MIC [1] of 5 µg/mL.
